From patent US20170190671A1, “BIS(ARYL)CATECHOL DERIVATIVES AS HERBICIDES” (E I DU PONT DE NEMOURS AND COMPANY, priority 2014, published 2017)

Experiments:
Assay in all cases: Test C postemergence
Format in all cases: in vivo
[1] = tested on: barnyardgrass (Echinochloa crus-galli)
Summary of the method: (§1)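 After preemergence treatment of seeds in loam-sand soil or foliar treatment at the 1- to 4-leaf stage of plants in peat/vermiculite medium, pots were kept 13-15 days in the greenhouse. Each was then scored visually, 0 meaning no effect and 100 complete control.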

[2] = tested on: ragweed (common ragweed, Ambrosia elatior); conditions: scale 0 to 100
Summary of the method: as §1

[3] = tested on: morningglory (Ipomoea coccinea); conditions: scale 0 to 100
Summary of the method: as §1

corn (Zea mays) = conditions: scale 0 to 100
Summary of the method: as §1

[4] = tested on: large (Lg) crabgrass (Digitaria sanguinalis); conditions: scale 0 to 100
Summary of the method: as §1

[5] = tested on: Italian ryegrass (Lolium multiflorum); conditions: scale 0 to 100
Summary of the method: as §1

[6] = tested on: waterhemp (common waterhemp, Amaranthus rudis); conditions: scale 0 to 100
Summary of the method: as §1

wild oat (Avena fatua) = conditions: scale 0 to 100
Summary of the method: as §1

[7] = tested on: pigweed (Amaranthus retroflexus); conditions: scale 0 to 100
Summary of the method: as §1

[8] = tested on: galium (catchweed bedstraw, Galium aparine); conditions: scale 0 to 100
Summary of the method: as §1

[9] = tested on: johnsongrass (Sorghum halepense); conditions: scale 0 to 100
Summary of the method: as §1

[10] = tested on: oilseed rape (Brassica napus); conditions: scale 0 to 100
Summary of the method: as §1

soybean (Glycine max) = conditions: scale 0 to 100
Summary of the method: as §1

kochia (Kochia scoparia) = conditions: scale 0 to 100
Summary of the method: as §1

[11] = tested on: winter wheat (Triticum aestivum); conditions: scale 0 to 100
Summary of the method: as §1

Fc1ccc(F)c(Oc2ncc(C(F)(F)F)cn2)c1Oc1ncc(Cl)cn1 [Compound 25]
Plant response rating, Barnyardgrass ([1]; 8 g ai/ha, postemergence, scale 0 to 100 (0 no effect, 100 complete control)): 5 | Plant response rating, Barnyardgrass ([1]; Postemergence, 16 g ai/ha, scale 0 to 100): 5 | Plant response rating, Barnyardgrass ([1]; Postemergence, 31 g ai/ha, scale 0 to 100): 5 | Plant response rating, Barnyardgrass ([1]; Postemergence, 62 g ai/ha, scale 0 to 100): 10 | Plant response rating, Ragweed ([2]; 8 g ai/ha, postemergence): 0 | Plant response rating, Ragweed ([2]; Postemergence, 31 g ai/ha): 10 | Plant response rating, Ragweed ([2]; Postemergence, 62 g ai/ha): 25 | Plant response rating, Morningglory ([3]; 8 g ai/ha, postemergence): 20 | Plant response rating, Morningglory ([3]; Postemergence, 31 g ai/ha): 10 | Plant response rating, Morningglory ([3]; Postemergence, 62 g ai/ha): 15 | Plant response rating, Corn (corn (Zea mays); 8 g ai/ha, postemergence): 5 | Plant response rating, Corn (corn (Zea mays); Postemergence, 16 g ai/ha): 5 | Plant response rating, Corn (corn (Zea mays); Postemergence, 31 g ai/ha): 5 | Plant response rating, Corn (corn (Zea mays); Postemergence, 62 g ai/ha): 5 | Plant response rating, Crabgrass, Large ([4]; 8 g ai/ha, postemergence): 0 | Plant response rating, Crabgrass, Large ([4]; Postemergence, 16 g ai/ha): 0 | Plant response rating, Crabgrass, Large ([4]; Postemergence, 31 g ai/ha): 0 | Plant response rating, Crabgrass, Large ([4]; Postemergence, 62 g ai/ha): 5 | Plant response rating, Ryegrass, Italian ([5]; 8 g ai/ha, postemergence): 0 | Plant response rating, Ryegrass, Italian ([5]; Postemergence, 31 g ai/ha): 5 | Plant response rating, Ryegrass, Italian ([5]; Postemergence, 62 g ai/ha): 5 | Plant response rating, Waterhemp ([6]; 8 g ai/ha, postemergence): 90 | Plant response rating, Waterhemp ([6]; Postemergence, 31 g ai/ha): 50 | Plant response rating, Waterhemp ([6]; Postemergence, 62 g ai/ha): 75 | Plant response rating, Oat, Wild (wild oat (Avena fatua); 8 g ai/ha, postemergence): 5 | Plant response rating, Oat, Wild (wild oat (Avena fatua); Postemergence, 31 g ai/ha): 10 | Plant response rating, Oat, Wild (wild oat (Avena fatua); Postemergence, 62 g ai/ha): 15 | Plant response rating, Pigweed ([7]; 8 g ai/ha, postemergence): 75 | Plant response rating, Pigweed ([7]; Postemergence, 31 g ai/ha): 85 | Plant response rating, Pigweed ([7]; Postemergence, 62 g ai/ha): 95 | Plant response rating, Galium ([8]; 8 g ai/ha, postemergence): 50 | Plant response rating, Galium ([8]; Postemergence, 16 g ai/ha): 55 | Plant response rating, Galium ([8]; Postemergence, 31 g ai/ha): 80 | Plant response rating, Galium ([8]; Postemergence, 62 g ai/ha): 80 | Plant response rating, Johnsongrass ([9]; 8 g ai/ha, postemergence): 0 | Plant response rating, Johnsongrass ([9]; Postemergence, 16 g ai/ha): 5 | Plant response rating, Johnsongrass ([9]; Postemergence, 31 g ai/ha): 5 | Plant response rating, Johnsongrass ([9]; Postemergence, 62 g ai/ha): 5 | Plant response rating, Oilseed Rape ([10]; 8 g ai/ha, postemergence): 30 | Plant response rating, Oilseed Rape ([10]; Postemergence, 31 g ai/ha): 50 | Plant response rating, Oilseed Rape ([10]; Postemergence, 62 g ai/ha): 45 | Plant response rating, Soybean (soybean (Glycine max); 8 g ai/ha, postemergence): 30 | Plant response rating, Soybean (soybean (Glycine max); Postemergence, 31 g ai/ha): 50 | Plant response rating, Soybean (soybean (Glycine max); Postemergence, 62 g ai/ha): 45 | Plant response rating, Kochia (kochia (Kochia scoparia); 8 g ai/ha, postemergence): 0 | Plant response rating, Kochia (kochia (Kochia scoparia); Postemergence, 16 g ai/ha): 50 | Plant response rating, Kochia (kochia (Kochia scoparia); Postemergence, 31 g ai/ha): 60 | Plant response rating, Kochia (kochia (Kochia scoparia); Postemergence, 62 g ai/ha): 75 | Plant response rating, Wheat ([11]; 8 g ai/ha, postemergence): 0 | Plant response rating, Wheat ([11]; Postemergence, 31 g ai/ha): 0 | Plant response rating, Wheat ([11]; Postemergence, 62 g ai/ha): 0
